Results reported in ChEMBL document CHEMBL3813680, “Discovery of a 2-hydroxyacetophenone derivative as an outstanding linker to enhance potency and β-selectivity of liver X receptor agonist” (Bioorg Med Chem, 2016).

Experiments:
Mus musculus [1] = test: Antiatherosclerosis activity in LDL receptor knock out mouse model assessed as increase in HDL-C levels at 3 mg/kg, po by HPLC analysis relative to control; assay type: functional
Mus musculus [2] = test: Antiatherosclerosis activity in LDL receptor knock out mouse model assessed as increase in TC levels at 1 mg/kg, po by HPLC analysis relative to control; assay type: functional
Mus musculus [3] = test: Antiatherosclerosis activity in LDL receptor knock out mouse model assessed as increase in TC levels at 3 mg/kg, po by HPLC analysis relative to control; assay type: functional
[4] = biological target: T1, Oxysterols receptor LXR-beta (Homo sapiens, UniProt P55055); test: Agonist activity at GAL4 fused LXRbeta-LBD (unknown origin) transfected in CHOK1 cells after 24 hrs by luciferase reporter gene assay
T1 sequence (P55055 whole entry): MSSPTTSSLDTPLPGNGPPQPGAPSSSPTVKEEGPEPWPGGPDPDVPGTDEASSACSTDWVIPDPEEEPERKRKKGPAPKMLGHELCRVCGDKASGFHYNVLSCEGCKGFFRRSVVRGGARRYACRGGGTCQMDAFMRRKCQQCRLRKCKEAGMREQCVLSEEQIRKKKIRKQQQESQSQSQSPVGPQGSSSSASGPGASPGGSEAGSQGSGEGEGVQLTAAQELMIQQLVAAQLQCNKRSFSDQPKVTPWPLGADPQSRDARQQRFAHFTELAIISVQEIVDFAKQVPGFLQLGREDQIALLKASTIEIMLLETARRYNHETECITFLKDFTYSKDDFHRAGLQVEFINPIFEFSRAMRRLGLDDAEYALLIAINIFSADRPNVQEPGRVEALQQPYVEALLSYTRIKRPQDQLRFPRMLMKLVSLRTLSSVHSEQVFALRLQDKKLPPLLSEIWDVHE

Mus musculus [5] = test: Antiatherosclerosis activity in LDL receptor knock out mouse model assessed as LDL-C levels at 1 mg/kg, po by HPLC analysis relative to control; assay type: functional
Mus musculus [6] = test: Antiatherosclerosis activity in LDL receptor knock out mouse model assessed as increase in TG levels at 3 mg/kg, po by HPLC analysis relative to control; assay type: functional
Mus musculus [7] = test: Antiatherosclerosis activity in LDL receptor knock out mouse model assessed as decrease in area of lipid accumulation at 3 mg/kg, po by HPLC analysis relative to control; assay type: functional; parameters: scale not given: the % may be the effect or the level left
Mus musculus [8] = test: Upregulation of ABCA1 mRNA expression in LDL receptor knock-out mouse blood at 3 mg/kg, po relative to control; assay type: functional
Mus musculus [9] = test: Antiatherosclerosis activity in LDL receptor knock out mouse model assessed as increase in HDL-C levels at 1 mg/kg, po by HPLC analysis relative to control; assay type: functional
[10] = Cmax in mouse plasma at 10 mg/kg, po measured up to 24 hrs by HPLC-LC-MS/MS analysis; assay type: ADME, organism-based; parameters: dose 10 mg/kg, route oral
Mus musculus [11] = test: Upregulation of ABCA1 mRNA expression in LDL receptor knock-out mouse blood at 1 mg/kg, po relative to control; assay type: functional
Mus musculus [12] = test: Antiatherosclerosis activity in LDL receptor knock out mouse model assessed as increase in TG levels at 1 mg/kg, po by HPLC analysis relative to control; assay type: functional
Mus musculus [13] = test: Upregulation of SREBP-1c expression in LDL receptor knock-out mouse liver at 3 mg/kg, po relative to control; assay type: functional
[14] = biological target: T2, Oxysterols receptor LXR-alpha (Homo sapiens, UniProt Q13133); test: Agonist activity at GAL4 fused LXRalpha (unknown origin) transfected in CHOK1 cells after 24 hrs by luciferase reporter gene assay
T2 sequence (Q13133 whole entry): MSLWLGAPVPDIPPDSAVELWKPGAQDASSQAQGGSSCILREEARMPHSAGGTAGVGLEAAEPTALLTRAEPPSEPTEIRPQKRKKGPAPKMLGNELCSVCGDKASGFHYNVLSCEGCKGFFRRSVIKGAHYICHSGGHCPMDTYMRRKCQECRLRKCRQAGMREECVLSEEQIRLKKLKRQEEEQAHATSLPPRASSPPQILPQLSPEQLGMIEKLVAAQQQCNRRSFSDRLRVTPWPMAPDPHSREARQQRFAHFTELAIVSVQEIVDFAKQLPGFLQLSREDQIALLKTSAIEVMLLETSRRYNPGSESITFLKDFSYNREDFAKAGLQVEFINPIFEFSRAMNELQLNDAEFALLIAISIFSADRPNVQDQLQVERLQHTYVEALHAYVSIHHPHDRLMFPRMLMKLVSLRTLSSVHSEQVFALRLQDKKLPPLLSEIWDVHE

Mus musculus [15] = test: Antiatherosclerosis activity in LDL receptor knock out mouse model assessed as decrease in LDL-C levels at 3 mg/kg, po by HPLC analysis relative to control; assay type: functional; parameters: scale not given: the % may be the effect or the level left
[16] = AUC in mouse plasma at 10 mg/kg, po measured up to 24 hrs by HPLC-LC-MS/MS analysis; assay type: ADME, organism-based; parameters: time < 24 hr, dose 10 mg/kg, route oral
Mus musculus [17] = test: Antiatherosclerosis activity in LDL receptor knock out mouse model assessed as decrease in area of lipid accumulation at 1 mg/kg, po by HPLC analysis relative to control; assay type: functional; parameters: scale not given: the % may be the effect or the level left
Mus musculus [18] = test: Upregulation of SREBP-1c expression in LDL receptor knock-out mouse liver at 1 mg/kg, po relative to control; assay type: functional

Compound `CCCc1cc(C(O)(C(F)(F)F)C(F)(F)F)ccc1Oc1ccc(C(=O)CN2C(=O)NC(C)(c3ccc(OC(C)C)cn3)C2=O)c(O)c1` (single isomer, unassigned; (-)) has an Activity (Mus musculus [1]) of 116%, an Activity (Mus musculus [2]) of 111% and an Activity (Mus musculus [3]) of 102%. The EC50 [4] was 7 nM, the Activity (Mus musculus [5]) was 108% and the Activity (Mus musculus [6]) was 166%. The Activity (Mus musculus [7]) was 59%, the “fold change (FC)” value (Mus musculus [8]) was 3 and the Activity (Mus musculus [9]) was 115%. The Cmax [10] was 503 ng/mL, the “fold change (FC)” value (Mus musculus [11]) was 2.1 and the Activity (Mus musculus [12]) was 152%. The “fold change (FC)” value (Mus musculus [13]) was 1.5, the EC50 [14] was 200 nM and the Activity (Mus musculus [15]) was 97%. For the same compound, the AUC at 24 h [16] was 3030 ng·h/mL, the Activity (Mus musculus [17]) was 62% and the “fold change (FC)” value (Mus musculus [18]) was 1.2.
